Measured values reported in PubChem BioAssay (NCI).
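GI50 marks 50% less growth. TGI denotes the concentration required for complete inhibition of growth.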

What was measured:
Assay in all cases: NCI anticancer screen, dose series, 384-well format
MALME-3M melanoma = tested on: MALME-3M melanoma
HT29 colon = tested on: HT29 colon
T-47D breast = tested on: T-47D breast
HCC-2998 colon = tested on: HCC-2998 colon
UACC-257 melanoma = tested on: UACC-257 melanoma
COLO 205 colon = tested on: COLO 205 colon
HOP-62 NSCLC = tested on: HOP-62 NSCLC
SW-620 colon = tested on: SW-620 colon
A498 renal = tested on: A498 renal
IGROV1 ovarian = tested on: IGROV1 ovarian
K-562 leukemia = tested on: K-562 leukemia
OVCAR-8 ovarian = tested on: OVCAR-8 ovarian
SK-MEL-28 melanoma = tested on: SK-MEL-28 melanoma

Compound: CC#CC(=O)N1CC[C@@H](n2c(=O)n(-c3ccc(Oc4ccccc4)cc3)c3c(N)ncnc32)C1
- GI50 (MALME-3M melanoma): 37.2 µM
- TGI (MALME-3M melanoma): > 100 µM
- GI50 (HT29 colon): 32.2 µM
- TGI (HT29 colon): > 100 µM
- GI50 (T-47D breast): 11.9 µM
- TGI (T-47D breast): 33.1 µM
- GI50 (HCC-2998 colon): 24.5 µM
- TGI (HCC-2998 colon): 49.4 µM
- GI50 (UACC-257 melanoma): 19.7 µM
- TGI (UACC-257 melanoma): 67.2 µM
- GI50 (COLO 205 colon): 37.1 µM
- TGI (COLO 205 colon): > 100 µM
- GI50 (HOP-62 NSCLC): 21.3 µM
- TGI (HOP-62 NSCLC): 61.8 µM
- GI50 (SW-620 colon): 25.6 µM
- TGI (SW-620 colon): 55.9 µM
- GI50 (A498 renal): 21.7 µM
- TGI (A498 renal): > 74.2 µM
- GI50 (IGROV1 ovarian): 16.8 µM
- TGI (IGROV1 ovarian): 37.4 µM
- GI50 (K-562 leukemia): 12.5 µM
- TGI (K-562 leukemia): 38.4 µM
- GI50 (OVCAR-8 ovarian): 27.6 µM
- TGI (OVCAR-8 ovarian): > 100 µM
- GI50 (SK-MEL-28 melanoma): 68.3 µM
- TGI (SK-MEL-28 melanoma): > 100 µM
